Assay results as given in patent publication US6022901A, “Administration of resveratrol to prevent or treat restenosis following coronary intervention” (priority 1998, dated 2000).
“And” between values parts separate entries of the source, which are not always exact repeats. Equal values may be shown once.

Assays:
[1] = Clinical signs, cage observations twice daily in mice fed resveratrol; assay type: in vivo, mouse (Female Mice Strain A); conditions: any dose groups tested, 125-3000 mg/kg diet, 6 weeks
Description: (§1) This experimental work assesses the bioavailability of resveratrol when administered orally to Female Mice Strain A, establishes the relationship betveen oral administration of resveratrol and the plasma concentration of the female mice, assesses the method of analysis for mouse plasma and establishes the detection limit of resveratrol in animal plasma. The mice were received from the Biological Testing Branch, National Cancer Institute, at 4-6 weeks of age, each having a body weight of approximately 16 g.
(§2) After a quarantine period of one week, seven (7) groups each consisting of 10 mice were given resveratrol mixed with Teklad 4% Mouse/Rat chow ad libitum for a 6-week treatment period. As indicated in the table which follows, the concentration of resveratrol ranged from 125 mg/kg of diet to 3000 mg/kg of diet, with one group, as the control group, receiving only the mouse chow.
(§3) Parameters monitored during the course of the study included sided-cage observations twice daily and body weight. Blood samples were taken at the end of the treatment period of 6 weeks and kept frozen at -20° C.±5 until the time of analysis. All animals were sacrificed by asphyxiation.

[2] = anti-initiation activity; cited from earlier work
[3] = Effect of Resveratrol on Body Weight of Female A/J Mice (diet, 6-week treatment); assay type: in vivo
Description: as §1, §2, §3

[4] = system: phase II drug-metabolizing enzymes; conditions: anti-initiation activity; cited from earlier work
[5] = system: cyclooxygenase; conditions: antipromotion activity; cited from earlier work
[6] = antipromotion activity; cited from earlier work
[7] = Resveratrol concentration in mouse plasma after oral administration in diet (HPLC); assay type: in vivo, mouse (Female Mice Strain A); conditions: for concentration at 1008 h: plasma, po, 6 weeks
Description: as §1
After a quarantine period of one week, seven (7) groups each consisting of 10 mice were given resveratrol mixed with Teklad 4% Mouse/Rat chow ad libitum for a 6-week treatment period.
as §3
Plasma resveratrol concentration was determined by a liquid-liquid extraction method and reverse phase HPLC at Pharmascience Inc., Bio-analytical Division, Quebec, Canada, as follows. After addition of internal standard and buffer to plasma samples, ethyl acetate was then added. The extracted organic phase was transferred to a clean tube and dried with a nitrogen evaporator. The residue was reconstituted with the mobile phase and then injected to HPLC with UV at 310 nm.

[8] = system: human promyelocytic leukemia cell; conditions: cited from earlier work
[9] = system: hydroperoxidase; conditions: antipromotion activity; cited from earlier work
[10] = anti-initiation activity; cited from earlier work; remark: listed apart in the source

Oc1ccc(C=Cc2cc(O)cc(O)c2)cc1 [resveratrol, 3,5,4'-trihydroxy stilbene]
compound-related clinical signs [1]: no compound-related clinical signs | antimutagen activity [2]: antimutagen | mean body weight ([3]; 125 ppm, day 5, N=10): 16.4 Grams | mean body weight ([3]; 125 ppm, day 8, N=10): 16.6 Grams | mean body weight ([3]; 125 ppm, day 12, N=10): 17.3 Grams | mean body weight ([3]; 125 ppm, day 15, N=10): 18.0 Grams | mean body weight ([3]; 125 ppm, day 19, N=10): 18.4 Grams | mean body weight ([3]; 125 ppm, day 22, N=10): 18.7 Grams | mean body weight ([3]; 125 ppm, day 26, N=10): 19.0 Grams | mean body weight ([3]; 125 ppm, day 29, N=10): 19.0 Grams | mean body weight ([3]; 125 ppm, day 33, N=10): 19.4 Grams | mean body weight ([3]; 125 ppm, day 36, N=10): 19.3 Grams | mean body weight ([3]; 125 ppm, day 40, N=10): 19.2 Grams | mean body weight ([3]; 125 ppm, day 42, N=10): 19.7 Grams | mean body weight ([3]; 250 ppm, day 5, N=10): 16.2 Grams | mean body weight ([3]; 250 ppm, day 8, N=10): 16.8 Grams | mean body weight ([3]; 250 ppm, day 12, N=10): 17.7 Grams | mean body weight ([3]; 250 ppm, day 15, N=10): 18.4 Grams | mean body weight ([3]; 250 ppm, day 19, N=10): 18.9 Grams | mean body weight ([3]; 250 ppm, day 22, N=10): 19.0 Grams | mean body weight ([3]; 250 ppm, day 26, N=10): 19.3 Grams | mean body weight ([3]; 250 ppm, day 29, N=10): 19.4 Grams | mean body weight ([3]; 250 ppm, day 33, N=10): 19.7 Grams | mean body weight ([3]; 250 ppm, day 36, N=10): 19.6 Grams | mean body weight ([3]; 250 ppm, day 40, N=10): 19.9 Grams | mean body weight ([3]; 250 ppm, day 42, N=10): 19.9 Grams | mean body weight ([3]; 500 ppm, day 5, N=10): 16.6 Grams | mean body weight ([3]; 500 ppm, day 8, N=10): 17.5 Grams | mean body weight ([3]; 500 ppm, day 12, N=10): 17.8 Grams | mean body weight ([3]; 500 ppm, day 15, N=10): 18.3 Grams | mean body weight ([3]; 500 ppm, day 19, N=10): 18.7 Grams | mean body weight ([3]; 500 ppm, day 22, N=10): 19.2 Grams | mean body weight ([3]; 500 ppm, day 26, N=10): 19.4 Grams | mean body weight ([3]; 500 ppm, day 29, N=10): 19.8 Grams | mean body weight ([3]; 500 ppm, day 33, N=10): 19.8 Grams | mean body weight ([3]; 500 ppm, day 36, N=10): 20.1 Grams | mean body weight ([3]; 500 ppm, day 40, N=10): 20.0 Grams | mean body weight ([3]; 500 ppm, day 42, N=10): 20.2 Grams | mean body weight ([3]; 1000 ppm, day 5, N=10): 16.1 Grams | mean body weight ([3]; 1000 ppm, day 8, N=10): 16.9 Grams | mean body weight ([3]; 1000 ppm, day 12, N=10): 17.4 Grams | mean body weight ([3]; 1000 ppm, day 15, N=10): 18.2 Grams | mean body weight ([3]; 1000 ppm, day 19, N=10): 18.1 Grams | mean body weight ([3]; 1000 ppm, day 22, N=10): 18.8 Grams | mean body weight ([3]; 1000 ppm, day 26, N=10): 19.0 Grams | mean body weight ([3]; 1000 ppm, day 29, N=10): 19.3 Grams | mean body weight ([3]; 1000 ppm, day 33, N=10): 19.5 Grams | mean body weight ([3]; 1000 ppm, day 36, N=10): 19.8 Grams | mean body weight ([3]; 1000 ppm, day 40, N=10): 19.5 Grams | mean body weight ([3]; 1000 ppm, day 42, N=10): 19.6 Grams | mean body weight ([3]; 2000 ppm, day 5, N=10): 16.3 Grams | individual body weight ([3]; 2000 ppm, day 5, animals 51-60): 17.8 Grams and 15.7 Grams and 16.1 Grams and 17.0 Grams and 13.7 Grams | mean body weight ([3]; 2000 ppm, day 8, N=10): 16.6 Grams | individual body weight ([3]; 2000 ppm, day 8, animals 51-60): 19.1 Grams and 15.8 Grams and 14.8 Grams and 16.5 Grams and 13.6 Grams | mean body weight ([3]; 2000 ppm, day 12, N=10): 17.7 Grams | individual body weight ([3]; 2000 ppm, day 12, animals 51-60): 19.5 Grams and 16.9 Grams and 17.0 Grams and 19.2 Grams and 18.1 Grams and 15.3 Grams | mean body weight ([3]; 2000 ppm, day 15, N=10): 17.7 Grams | individual body weight ([3]; 2000 ppm, day 15, animals 51-60): 19.6 Grams and 16.9 Grams and 16.7 Grams and 19.0 Grams and 17.7 Grams and 14.5 Grams | mean body weight ([3]; 2000 ppm, day 19, N=10): 18.8 Grams | individual body weight ([3]; 2000 ppm, day 19, animals 51-60): 20.1 Grams and 18.4 Grams and 19.5 Grams and 15.7 Grams | mean body weight ([3]; 2000 ppm, day 22, N=10): 19.1 Grams | individual body weight ([3]; 2000 ppm, day 22, animals 51-60): 20.3 Grams and 18.8 Grams and 18.4 Grams and 20.9 Grams and 20.0 Grams and 16.3 Grams | mean body weight ([3]; 2000 ppm, day 26, N=10): 19.2 Grams | individual body weight ([3]; 2000 ppm, day 26, animals 51-60): 20.2 Grams and 19.0 Grams and 18.7 Grams and 20.7 Grams and 19.9 Grams and 16.0 Grams | mean body weight ([3]; 2000 ppm, day 29, N=10): 19.5 Grams | individual body weight ([3]; 2000 ppm, day 29, animals 51-60): 20.7 Grams and 19.5 Grams and 18.8 Grams and 21.4 Grams and 20.0 Grams and 16.1 Grams | mean body weight ([3]; 2000 ppm, day 33, N=10): 19.8 Grams | individual body weight ([3]; 2000 ppm, day 33, animals 51-60): 21.0 Grams and 19.8 Grams and 19.5 Grams and 21.2 Grams and 20.7 Grams and 16.6 Grams | mean body weight ([3]; 2000 ppm, day 36, N=10): 19.6 Grams | individual body weight ([3]; 2000 ppm, day 36, animals 51-60): 21.3 Grams and 18.4 Grams and 18.5 Grams and 20.4 Grams and 20.0 Grams and 16.7 Grams | mean body weight ([3]; 2000 ppm, day 40, N=10): 19.7 Grams | individual body weight ([3]; 2000 ppm, day 40, animals 51-60): 20.3 Grams and 19.9 Grams and 18.9 Grams and 21.0 Grams and 20.9 Grams and 17.2 Grams | mean body weight ([3]; 2000 ppm, day 42, N=10): 20.3 Grams | individual body weight ([3]; 2000 ppm, day 42, animals 51-60): 19.5 Grams and 21.7 Grams and 19.2 Grams and 21.9 Grams and 21.3 Grams and 18.0 Grams | mean body weight ([3]; group 7, 300 (ppm), day 5, N=10): 16.3 Grams | individual body weight ([3]; group 7, 300 (ppm), day 5, animals 61-70): 16.0 Grams and 14.9 Grams and 15.2 Grams | mean body weight ([3]; group 7, 300 (ppm), day 8, N=10): 17.1 Grams | individual body weight ([3]; group 7, 300 (ppm), day 8, animals 61-70): 16.8 Grams and 16.4 Grams and 16.1 Grams | mean body weight ([3]; group 7, 300 (ppm), day 12, N=10): 17.6 Grams | individual body weight ([3]; group 7, 300 (ppm), day 12, animals 61-70): 17.6 Grams and 17.5 Grams and 17.4 Grams | mean body weight ([3]; group 7, 300 (ppm), day 15, N=10): 17.1 Grams | individual body weight ([3]; group 7, 300 (ppm), day 15, animals 61-70): 16.9 Grams and 17.2 Grams | mean body weight ([3]; group 7, 300 (ppm), day 19, N=10): 18.7 Grams | individual body weight ([3]; group 7, 300 (ppm), day 19, animals 61-70): 18.8 Grams and 18.2 Grams | mean body weight ([3]; group 7, 300 (ppm), day 22, N=10): 19.1 Grams | individual body weight ([3]; group 7, 300 (ppm), day 22, animals 61-70): 18.5 Grams and 18.6 Grams | mean body weight ([3]; group 7, 300 (ppm), day 26, N=10): 19.1 Grams | individual body weight ([3]; group 7, 300 (ppm), day 26, animals 61-70): 18.6 Grams and 18.5 Grams | mean body weight ([3]; group 7, 300 (ppm), day 29, N=10): 18.9 Grams | individual body weight ([3]; group 7, 300 (ppm), day 29, animals 61-70): 18.8 Grams and 18.3 Grams | mean body weight ([3]; group 7, 300 (ppm), day 33, N=10): 19.5 Grams | individual body weight ([3]; group 7, 300 (ppm), day 33, animals 61-70): 18.7 Grams and 18.8 Grams | mean body weight ([3]; group 7, 300 (ppm), day 36, N=10): 19.9 Grams | individual body weight ([3]; group 7, 300 (ppm), day 36, animals 61-70): 19.4 Grams and 18.6 Grams | mean body weight ([3]; group 7, 300 (ppm), day 40, N=10): 19.6 Grams | individual body weight ([3]; group 7, 300 (ppm), day 40, animals 61-70): 19.3 Grams and 19.1 Grams | mean body weight ([3]; group 7, 300 (ppm), day 42, N=10): 20.1 Grams | individual body weight ([3]; group 7, 300 (ppm), day 42, animals 61-70): 19.1 Grams and 19.5 Grams | induction of phase II drug-metabolizing enzymes [4]: induced phase II drug-metabolizing enzymes | inhibition of cyclooxygenase [5]: inhibited cyclooxygenase | anti-inflammatory effects [6]: mediated anti-inflammatory effects | oral absorption ([7]; mixed with chow): easily absorbed by the oral route | relationship between plasma resveratrol levels and amount administered ([7]; oral in diet, FIG. 1): linear relationship | concentration at 1008 h ([7]; 125 mg/kg diet, n=5): 10.8 ng/mL | concentration at 1008 h ([7]; 250 mg/kg diet, n=4): 87.9 ng/mL | concentration at 1008 h ([7]; 500 mg/kg diet, n=5): 56.8 ng/mL | concentration at 1008 h ([7]; 1000 mg/kg diet, n=5): 99 ng/mL | concentration at 1008 h ([7]; 2000 mg/kg diet, n=5): 178 ng/mL | concentration at 1008 h ([7]; 3000 mg/kg diet, n=5): 447 ng/mL | human promyelocytic leukemia cell differentiation [8]: induced human promyelocytic leukemia cell differentiation | inhibition of hydroperoxidase [9]: inhibited cyclooxygenase and hydroperoxidase | antioxidant activity [10]: acted as an antioxidant
